Laboratory results: ChEMBL document CHEMBL1142775, “Functionalized head-to-head hairpin polyamides: synthesis, double-stranded DNA-binding activity and affinity” (Bioorg Med Chem Lett, 2005)

target: Nucleic Acid; test: Dissociation constant of conjugate DNA complexes in 0.05 HEPES buffer of pH 7.3, at room temperature; type: nucleic-acid assay

Structure (SMILES)	Kd [µM]
CCCCC(=O)NCCCCCCOP(=O)(NCCCC(=O)Nc1cc(C(=O)Nc2cc(C(=O)Nc3cc(C(=O)NCCCC(=O)Nc4cc(C(=O)Nc5cc(C(=O)Nc6cc(C(=O)NCCCN(C)C)n(C)c6)n(C)c5)n(C)c4)n(C)c3)n(C)c2)n(C)c1)NCCCC(=O)Nc1cc(C(=O)Nc2cc(C(=O)Nc3cc(C(=O)NCCCC(=O)Nc4cc(C(=O)Nc5cc(C(=O)Nc6cc(C(=O)NCCCN(C)C)n(C)c6)n(C)c5)n(C)c4)n(C)c3)n(C)c2)n(C)c1	0.018
CCCCC(=O)N(CC(=O)NCCCC(=O)Nc1cc(C(=O)Nc2cc(C(=O)Nc3cc(C(=O)NCCCC(=O)Nc4cc(C(=O)Nc5cc(C(=O)Nc6cc(C(=O)NCCCN(C)C)n(C)c6)n(C)c5)n(C)c4)n(C)c3)n(C)c2)n(C)c1)CC(=O)NCCCC(=O)Nc1cc(C(=O)Nc2cc(C(=O)Nc3cc(C(=O)NCCCC(=O)Nc4cc(C(=O)Nc5cc(C(=O)Nc6cc(C(=O)NCCCN(C)C)n(C)c6)n(C)c5)n(C)c4)n(C)c3)n(C)c2)n(C)c1	0.0043
CN(C)CCCNC(=O)c1cc(NC(=O)c2cc(NC(=O)c3cc(NC(=O)CCCNC(=O)c4cc(NC(=O)c5cc(NC(=O)c6cc(NC(=O)CCCNP(=O)(CCCCN7C(=O)c8ccccc8C7=O)NCCCC(=O)Nc7cc(C(=O)Nc8cc(C(=O)Nc9cc(C(=O)NCCCC(=O)Nc%10cc(C(=O)Nc%11cc(C(=O)Nc%12cc(C(=O)NCCCN(C)C)n(C)c%12)n(C)c%11)n(C)c%10)n(C)c9)n(C)c8)n(C)c7)cn6C)cn5C)cn4C)cn3C)cn2C)cn1C	0.034
CCCCC(=O)NCCCN(CC(=O)NCCCC(=O)Nc1cc(C(=O)Nc2cc(C(=O)Nc3cc(C(=O)NCCCC(=O)Nc4cc(C(=O)Nc5cc(C(=O)Nc6cc(C(=O)NCCCN(C)C)n(C)c6)n(C)c5)n(C)c4)n(C)c3)n(C)c2)n(C)c1)CC(=O)NCCCC(=O)Nc1cc(C(=O)Nc2cc(C(=O)Nc3cc(C(=O)NCCCC(=O)Nc4cc(C(=O)Nc5cc(C(=O)Nc6cc(C(=O)NCCCN(C)C)n(C)c6)n(C)c5)n(C)c4)n(C)c3)n(C)c2)n(C)c1	0.0048
